Patent EP4424303A1, “LENVATINIB COMPOSITION WITH IMPROVED BIOAVAILABILITY” (STADA ARZNEIMITTEL AG, priority 2023, dated 2024)
Counter-ions that a name gives are not always drawn.

Assay: Saturation (equilibrium) solubility by shake-flask technique
Format: physicochemical
Settings: thermodynamic from solid, 37 °C ± 1 °C
Experimental: The equilibrium solubility of Lenvatinib mesylate in different dissolution media at 37 °C ± 1 °C was measured by shake-flask technique. The dissolution media were prepared according to USP. The pH for each test solution was measured after the addition of the drug substance and at the end of the equilibrium solubility study.
1. Table 1: saturation solubility of Lenvatinib mesylate depending on pH

solubility (USP dissolution medium pH 2.0, simulated gastric fluid, pH 2.0, Initial pH 2.0, Final pH 1.88): 2620 µg/mL
solubility (USP dissolution medium pH 4.5, aqueous buffer, pH 4.5, Initial pH 4.52, Final pH 4.38): 13 µg/mL
solubility (USP dissolution medium pH 5.5, aqueous buffer, pH 5.5, Initial pH 5.49, Final pH 5.25): 3 µg/mL
solubility (USP dissolution medium pH 6.8, aqueous buffer, pH 6.8, Initial pH 6.82, Final pH 6.68): 1 µg/mL
solubility (simulated gastric fluid, 0.1N HCl, Initial pH 1.1, Final pH 1.23): 1830 µg/mL
Structure (SMILES): COc1cc2nccc(Oc3ccc(NC(=O)NC4CC4)c(Cl)c3)c2cc1C(N)=O [Lenvatinib mesylate, 4-[3-chloro-4-(cyclopropylaminocarbonyl)aminophenoxy]-7-methoxy-6-quinolinecarboxamide]
